Data set [1] can be described thus: Precipitation on dilution into water or saline. In kind it is physicochemical.
The conditions of data set [2]: AS in propylene glycol and ethanol (4/1), pH 11.0; in 2 hours. The procedure:
The sample was then vortexed, filtered, after which it was analyzed by HPLC.

Data set [3] is described as follows: Solubility in basic solutions without cyclodextrin (HPLC). The note with it: Sample 1: 20 mg AS in 1 mL, 16.54 mM L-Arg; pH 10.71 with L-Arg (L-Arg alone).

Read-outs that look alike come from different tables or passages of the source.

Turning to `CC(C)c1c(C(=O)Nc2ccccc2)c(-c2ccccc2)c(-c2ccc(F)cc2)n1CC[C@@H](O)C[C@@H](O)CC(=O)O` [AS—Ca, atorvastatin calcium trihydrate], the precipitation on dilution entry is “precipitated” in data set [1] (Example 12 PG/ethanol/water sample adjusted to pH 7.5, diluted 1:1 into water); “precipitated” in data set [1] (Example 12 PG/ethanol/water sample adjusted to pH 8.0, diluted 1:1 into water); “precipitation” in data set [1] (anything less than 40% propylene glycol and 10% ethanol, diluted with normal saline); “precipitate” in data set [1] (prepared in non-aqueous co-solvents and then diluted into saline); “precipitated” in data set [1] (propylene glycol and ethanol (4/1), pH 11.0, diluted 1:3 in saline). Moreover, the degradation reads like this: (control solution of the same mixture (20% HPβ-CD, pH 8.47), 40° C. for 1 month) roughly 15.5%; (solubilized with HPβ-CD (20%, pH 8.47), lyophilized with manifold freeze dryer, 40° C. for 1 month) roughly 3.5%; (solubilized with HPβ-CD, diluted 1:1 into 8% sucrose, lyophilized with shelf freeze dryer, storage 1 month at 40° C.) “less than 0.1%”.

In the case of `CC(C)c1c(C(=O)Nc2ccccc2)c(-c2ccccc2)c(-c2ccc(F)cc2)n1CC[C@@H](O)C[C@@H](O)CC(=O)O` [AS, Atorvastatin free acid], the degradation result in data set [2] is on record as “approximately 50%”. Besides, the precipitation on dilution result in data set [1] (100% ethanol solution, diluted 1:1 with saline) was “precipitated”; in data set [1] (100% propylene glycol solution, diluted 1:1 with saline) it was “precipitated”. Also, the resulting concentration in data set [3] came out at 1.91 mg/mL.
